ChEMBL document CHEMBL5634143, “Development of teixobactin analogues containing hydrophobic, non-proteogenic amino acids that are highly potent against multidrug-resistant bacteria and biofilms” (Eur J Med Chem, 2023)
Converted amounts (≈) assume the structure as drawn. The source made the active and inactive calls. The rule behind the calls is not given here.

Key:
[1] = Hemolytic activity in rabbit erythrocytes assessed as hemolysis at 512 microg/ml relative to control; assay type: toxicity, cell-based, Oryctolagus cuniculus, Erythrocyte; details: at 512 µg/mL, read-out: Activity
Staphylococcus aureus [2] = assay: Antibacterial activity against methicilin-resistant Staphylococcus aureus 21455 assessed as inhibition of bacterial growth; assay type: functional
Staphylococcus aureus [3] = assay: Bactericidal activity against methicilin-resistant Staphylococcus aureus 21455 assessed as reduction in bacterial growth by measuring minimum bactericidal concentration at 4 times MIC by time-kill kinetic assay; assay type: functional
[4] = tested on: Staphylococcus saprophyticus; assay: Antibacterial activity against Staphylococcus saprophyticus ATCC 49453 assessed as inhibition of bacterial growth; assay type: functional
[5] = tested on: Staphylococcus epidermidis; assay: Antibacterial activity against Staphylococcus epidermidis 1457 assessed as inhibition of biofilm formation at 10 ug/ml incubated for 5 hrs by confocal microscopic analysis; assay type: functional, organism-based; details: dose 10.0 µg/ml
[6] = tested on: Staphylococcus saprophyticus; assay: Antibacterial activity against Staphylococcus saprophyticus ATCC BAA 750 assessed as inhibition of bacterial growth; assay type: functional
Bacillus subtilis = assay: Antibacterial activity against Bacillus subtilis ATCC 6633 assessed as inhibition of bacterial growth; assay type: functional
Staphylococcus aureus [7] = assay: Antibacterial activity against Staphylococcus aureus 29213 assessed as inhibition of bacterial growth; assay type: functional
Enterococcus faecium [8] = assay: Antibacterial activity against Vancomycin-resistant Enterococcus […] ATCC 700802 assessed as inhibition of bacterial growth; assay type: functional
Staphylococcus aureus [9] = assay: Antibacterial activity against methicilin-resistant Staphylococcus aureus 42412 assessed as inhibition of bacterial growth; assay type: functional
Staphylococcus aureus [10] = assay: Antibacterial activity against Staphylococcus aureus 15981 assessed as inhibition of biofilm formation at 10 ug/ml incubated for 5 hrs by confocal microscopic analysis; assay type: functional, organism-based; details: dose 10.0 µg/ml
[11] = tested on: Staphylococcus saprophyticus; assay: Antibacterial activity against Staphylococcus saprophyticus ATCC 15305 assessed as inhibition of bacterial growth; assay type: functional
Staphylococcus aureus [12] = assay: Bactericidal activity against methicilin-resistant Staphylococcus aureus 21455 assessed as inhibition of bacterial growth by time-kill kinetic assay; assay type: functional, organism-based
[13] = tested on: Staphylococcus saprophyticus; assay: Antibacterial activity against Staphylococcus saprophyticus ATCC 49907 assessed as inhibition of bacterial growth; assay type: functional
Staphylococcus aureus [14] = assay: Antibacterial activity against methicilin-resistant Staphylococcus aureus 1003 assessed as inhibition of bacterial growth; assay type: functional
Enterococcus faecium [15] = assay: Antibacterial activity against Vancomycin-resistant Enterococcus […] ATCC 29212 assessed as inhibition of bacterial growth; assay type: functional; details: Enterococcus faecalis
Staphylococcus aureus [16] = assay: Antibacterial activity against methicilin-resistant Staphylococcus aureus ATCC 700699 assessed as inhibition of bacterial growth; assay type: functional
Staphylococcus aureus [17] = assay: Antibacterial activity against Staphylococcus aureus 4299 assessed as inhibition of bacterial growth; assay type: functional
Enterococcus faecium [18] = assay: Antibacterial activity against Vancomycin-resistant Enterococcus faecium 1014 assessed as inhibition of bacterial growth; assay type: functional
Bacillus cereus = assay: Antibacterial activity against Bacillus cereus ATCC 11788 assessed as inhibition of bacterial growth; assay type: functional
[19] = tested on: Staphylococcus epidermidis; assay: Antibacterial activity against Staphylococcus epidermidis 12228 assessed as inhibition of bacterial growth; assay type: functional
Cell membrane [20] = assay: Induction of cell membrane […] in methicilin-resistant Staphylococcus aureus 21455 assessed as increase in fluorescence intensity at 8 times MIC by SYTOX green dye based fluorescence analysis; assay type: cell membranes
Cell membrane [21] = assay: Induction of cell membrane […] in methicilin-resistant Staphylococcus aureus 21455 assessed as increase in fluorescence intensity at 16 times MIC by SYTOX green dye based fluorescence analysis; assay type: cell membranes
[22] = Hemolytic activity in rabbit erythrocytes assessed as hemolysis at 256 microg/ml relative to control; assay type: toxicity, cell-based, Oryctolagus cuniculus, Erythrocyte; details: at 256 µg/mL, read-out: Activity
Staphylococcus aureus [23] = assay: Bactericidal activity against methicilin-resistant Staphylococcus aureus 21455 assessed as reduction in bacterial viability at 2 times MIC observed after 4 hrs by time-kill kinetic assay relative to control; assay type: functional
[24] = Hemolytic activity in rabbit erythrocytes assessed as hemolysis at 64 microg/ml relative to control; assay type: toxicity, cell-based, Oryctolagus cuniculus, Erythrocyte; details: at 64 µg/mL, read-out: Activity
Staphylococcus aureus [25] = assay: Bactericidal activity against methicilin-resistant Staphylococcus aureus 21455 assessed as reduction in bacterial colony forming unit at 16 times MIC observed after 2 hrs by time-kill kinetic assay; assay type: functional
Cell membrane [26] = assay: Induction of cytoplasmic membrane depolarization in methicilin-resistant Staphylococcus aureus 21455 at 8 times MIC by DiSC3(5) dye-based fluorescence assay
Cell membrane [27] = assay: Induction of cytoplasmic membrane depolarization in methicilin-resistant Staphylococcus aureus 21455 at 16 times MIC by DiSC3(5) dye-based fluorescence assay

Compound | MIC (Staphylococcus aureus [2]) [µg/mL] | MIC [4] [µg/mL] | Activity [5] | MIC [6] [µg/mL] | MIC (Bacillus subtilis) [µg/mL] | MIC (Staphylococcus aureus [7]) [µg/mL] | MIC (Enterococcus faecium [8]) [µg/mL] | MIC (Staphylococcus aureus [9]) [µg/mL] | Activity (Staphylococcus aureus [10]) | MIC [11] [µg/mL] | Activity (Staphylococcus aureus [12]) | MIC [13] [µg/mL] | MIC (Staphylococcus aureus [14]) [µg/mL] | MIC (Enterococcus faecium [15]) [µg/mL] | MIC (Staphylococcus aureus [16]) [µg/mL] | MIC (Staphylococcus aureus [17]) [µg/mL] | MIC (Enterococcus faecium [18]) [µg/mL] | MIC (Bacillus cereus) [µg/mL] | MIC [19] [µg/mL] | also measured
CCCC[C@@H]1NC(=O)[C@H](C)NC(=O)[C@H](NC(=O)[C@H](CO)NC(=O)[C@@H](NC(=O)[C@H](NC(=O)[C@@H](CCC(N)=O)NC(=O)[C@H](CO)NC(=O)[C@@H](NC(=O)[C@@H](Cc2ccccc2)NC)[C@@H](C)CC)[C@@H](C)CC)[C@@H](C)CC)[C@H](C)OC(=O)[C@H]([C@@H](C)CC)NC1=O | 0.25 (≈ 0.208 µM) | 0.063 (≈ 0.0524 µM) | Active | 0.063 (≈ 0.0524 µM) | 0.063 (≈ 0.0524 µM) | 0.063 (≈ 0.0524 µM) | 0.5 (≈ 0.416 µM) | 0.125 (≈ 0.104 µM) | Active | 0.063 (≈ 0.0524 µM) | Dose-Dependent Effect | 0.063 (≈ 0.0524 µM) | 0.5 (≈ 0.416 µM) | 1 (≈ 0.832 µM) | 0.5 (≈ 0.416 µM) | 0.25 (≈ 0.208 µM) | 1 (≈ 0.832 µM) | 0.063 (≈ 0.0524 µM) | 0.063 (≈ 0.0524 µM) | hemolysis at 512 microg/ml [1]: ≤ 2%; MBC (Staphylococcus aureus [3]): 1 µg/mL (≈ 0.832 µM)
CC[C@H](C)[C@H](NC(=O)[C@@H](Cc1ccccc1)NC)C(=O)N[C@@H](CCCNC(=N)N)C(=O)N[C@H](CCCNC(=N)N)C(=O)N[C@@H](C(=O)N[C@H](C(=O)N[C@@H](CO)C(=O)N[C@H]1C(=O)N[C@@H](C)C(=O)N[C@@H](C2CCCCC2)C(=O)N[C@@H]([C@@H](C)CC)C(=O)O[C@H]1C)[C@@H](C)CC)[C@@H](C)CC | 0.25 (≈ 0.189 µM) | 0.125 (≈ 0.0944 µM) | Active | < 0.063 | 0.063 (≈ 0.0476 µM) | 0.063 (≈ 0.0476 µM) | 2 (≈ 1.51 µM) | 0.063 (≈ 0.0476 µM) | Active | < 0.063 | Dose-Dependent Effect | 0.063 (≈ 0.0476 µM) | 0.5 (≈ 0.377 µM) | 2 (≈ 1.51 µM) | 0.25 (≈ 0.189 µM) | 0.125 (≈ 0.0944 µM) | 1 (≈ 0.755 µM) | 2 (≈ 1.51 µM) | 0.063 (≈ 0.0476 µM) | Activity (Cell membrane [20]): Active; Activity (Cell membrane [21]): Active; hemolysis at 256 microg/ml [22]: 18%; Activity (Staphylococcus aureus [23]): >=99.9%; hemolysis at 64 microg/ml [24]: 3.7%; Activity (Staphylococcus aureus [25]): >=3 log10CFU; Activity (Cell membrane [26]): Active; Activity (Cell membrane [27]): Active
CN[C@H](CC(C)C)C(=O)N[C@H]1C(=O)N[C@@H](CC(N)=O)C(=O)N[C@H]2C(=O)N[C@H]3C(=O)N[C@H](C(=O)N[C@H](C(=O)O)c4cc(O)cc(O)c4-c4cc3ccc4O)[C@H](O)c3ccc(c(Cl)c3)Oc3cc2cc(c3O[C@@H]2O[C@H](CO)[C@@H](O)[C@H](O)[C@H]2O[C@H]2C[C@](C)(N)[C@H](O)[C@H](C)O2)Oc2ccc(cc2Cl)[C@H]1O |  |  | Active |  |  |  |  |  | Active |  |  |  |  |  |  |  |  |  |  | 
